The target in the assay is catalytic domain of human PARP14 (Homo sapiens (Human), UniProt Q460N5). Briefly: Enzymatic assay for inhibition of PARP14 (DELFIA, auto-modification with biotin-NAD). The assay is classed as biochemical. The following applies: auto-modification of PARP14 by biotin-NAD, 50 nM PARP14, 3 μM biotin-NAD. An outline of the steps: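 DELFIA auto-modification read-out: europium-streptavidin bound to biotin-NAD incorporated onto nickel-captured His-TEV PARP14 catalytic domain. Compound preincubated 30 min, then 50 nM enzyme with 3 μM biotin-NAD reacted 3 h, all at 25 °C, pH 8, then NAD quench. Percent inhibition normalized to rucaparib/DMSO wells, fitted (4- or 3-parameter) for IC50.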
Chain of catalytic domain of human PARP14 (Q460N5 1611-1801): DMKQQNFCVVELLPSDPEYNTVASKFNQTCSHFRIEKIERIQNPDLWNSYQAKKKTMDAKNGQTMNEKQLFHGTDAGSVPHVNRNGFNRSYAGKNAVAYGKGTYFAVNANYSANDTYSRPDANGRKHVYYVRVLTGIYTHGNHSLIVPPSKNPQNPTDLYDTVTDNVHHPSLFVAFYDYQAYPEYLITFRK

This note sets out measurements from patent US10562891B2, “Quinazolinones as PARP14 inhibitors” (Ribon Therapeutics Inc., priority 2017, dated 2020).

The structures appear in SMILES notation. Counter-ions that a name gives are not always drawn.

On to `Cc1cccc2c(=O)[nH]c(CSC3CCN(C(=O)[C@@H](N)CCCNC(=N)N)CC3)nc12` [Example 170, (S)-1-(4-Amino-5-(4-(((8-methyl-4-oxo-3,4-dihydroquinazolin-2-yl)methyl)thio)piperidin-1-yl)-5-oxopentyl)guanidine Trihydrochloride], for which the 50% inhibitory concentration (IC50) was less than 1 µM.

For the compound `O=c1[nH]c(CSC2CCNCC2)nc2cc(NC3CCCC3)cc(F)c12` [Example 176, 7-(Cyclopentylamino)-5-fluoro-2-((piperidin-4-ylthio)methyl)quinazolin-4(3H)-one Hydrochloride], the IC50 was less than 1 µM.

Compound `O=c1[nH]c(CSC2CCOCC2)nc2cc(OCC3CC3)ccc12` [Example 219, 7-(Cyclopropylmethoxy)-2-(((tetrahydro-2H-pyran-4-yl)thio)methyl)quinazolin-4(3H)-one] showed an IC50 of less than 1 µM.

The compound `O=c1[nH]c(CS[C@H]2CC[C@H](O)CC2)nc2cc(Nc3cccnc3)ccc12` [Example 101, 2-(((trans-4-Hydroxycyclohexyl)thio)methyl)-7-(pyridin-3-ylamino)quinazolin-4(3H)-one] came in with an IC50 of less than 1 µM.

Turning to `CO[C@H]1CC[C@@H](SCc2nc3cc(OCC4CCOCC4)cc(F)c3c(=O)[nH]2)CC1` [Example 357], the IC50 was less than 1 µM.

For the compound `O=c1[nH]c(CSC2CCOCC2)nc2cc(NC3CCOCC3)c(F)cc12` [Example 245, 6-Fluoro-7-((tetrahydro-2H-pyran-4-yl)amino)-2-(((tetrahydro-2H-pyran-4-yl)thio)methyl)quinazolin-4(3H)-one], the IC50 was in the range of 1 to 10 µM.

The compound `O=c1[nH]c(CSC2CCOCC2)nc2ccncc12` [Example 40, 2-(((Tetrahydro-2H-pyran-4-yl)thio)methyl)pyrido[4,3-d]pyrimidin-4(3H)-one] returned an IC50 of more than 10 µM.

For `O=c1[nH]c(CSC2CCOCC2)nc2cc(NC3CCC3)cc(F)c12` [Example 251, 7-(Cyclobutylamino)-5-fluoro-2-(((tetrahydro-2H-pyran-4-yl)thio)methyl)quinazolin-4(3H)-one], the IC50 was less than 1 µM.

`O=c1[nH]c(CS[C@H]2CC[C@@H](O)CC2)nc2cc(OCC3CCOCC3)cc(F)c12` [Example 365] displayed an IC50 of less than 1 µM.

In the case of `O=c1[nH]c(CS[C@H]2CC[C@@H](OC(F)(F)F)CC2)nc2cc(OCC3CCOCC3)cc(F)c12` [Example 418], the IC50 was less than 1 µM.

For `CC(=O)N1CCC(Nc2ccc3c(=O)[nH]c(CSC4CCOCC4)nc3c2)CC1` [Example 131, 7-((1-Acetylpiperidin-4-yl)amino)-2-(((tetrahydro-2H-pyran-4-yl)thio)methyl) quinazolin-4(3H)-one], the IC50 lay in the range of 1 to 10 µM.

As to `O=c1[nH]c(CSC2CCOCC2)nc2cc(OCC3CCCN(CC(F)F)C3)cc(F)c12` (centres unmarked) [Example 312, 7-((1-(2,2-Difluoroethyl)piperidin-3-yl)methoxy)-5-fluoro-2-(((tetrahydro-2H-pyran-4-yl)thio)methyl)quinazolin-4(3H)-one], the IC50 is less than 1 µM.

In turn, `Cc1cccc2c(=O)[nH]c(CSC3CCN(Cc4ccccc4OCC#N)CC3)nc12` [Example 155, 2-(2-((4-(((8-Methyl-4-oxo-3,4-dihydroquinazolin-2-yl)methyl)thio)piperidin-1-yl)methyl)phenoxy)acetonitrile trifluoroacetate] had an IC50 of less than 1 µM.

Compound `Nc1cc2nc(CSC3CCOCC3)[nH]c(=O)c2c(F)c1F` [Example 403] showed an IC50 of more than 10 µM.

`NC(=O)C[C@H]1CC[C@H](SCc2nc3cc(NC4CCCC4)cc(F)c3c(=O)[nH]2)CC1` [Example 286, 2-(Trans-4-(((7-(cyclopentylamino)-5-fluoro-4-oxo-3,4-dihydroquinazolin-2-yl)methyl)thio)cyclohexyl)acetamide] yielded an IC50 of less than 1 µM.

The compound `O=c1[nH]c(CSC2CCNCC2)nc2cc(NC3CCCCC3)cc(F)c12` [Example 248, 7-(Cyclohexylamino)-5-fluoro-2-((piperidin-4-ylthio)methyl)quinazolin-4(3H)-one] registered an IC50 of less than 1 µM.

Compound `CN1CCCC(Nc2ccc3c(=O)[nH]c(CSC4CCOCC4)nc3c2)C1` (centres unmarked) [Example 133, 7-((1-Methylpiperidin-3-yl)amino)-2-(((tetrahydro-2H-pyran-4-yl)thio)methyl)quinazolin-4(3H)-one] registered an IC50 of more than 10 µM.

In the case of `O=c1[nH]c(CS[C@H]2CCN[C@@H](C(F)(F)F)C2)nc2cc(NC3CCCC3)cc(F)c12` (relative stereo) [Example 228, 7-(Cyclopentylamino)-5-fluoro-2-(((cis-2-(trifluoromethyl)piperidin-4-yl)thio)methyl)quinazolin-4(3H)-one hydrochloride], the IC50 was 1 to 10 µM.

The compound `Cc1cccc2c(=O)[nH]c(CS[C@H]3CC[C@@H](CO)CC3)nc12` [Example 63, 2-(((cis-4-(Hydroxymethyl)cyclohexyl)thio)methyl)-8-methylquinazolin-4(3H)-one] came in with an IC50 of 1 to 10 µM.

The compound `O=c1[nH]c(CSC2CCOCC2)nc2cc(Nc3ccccn3)ccc12` [Example 81, 7-(Pyridin-2-ylamino)-2-(((tetrahydro-2H-pyran-4-yl)thio)methyl)quinazolin-4(3H)-one] had an IC50 of 1 to 10 µM.

In the case of `O=c1[nH]c(CSC2CCOCC2)nc2cc(OCC3CCNCC3)cc(F)c12` [Example 399], the IC50 is less than 1 µM.

Regarding `O=c1[nH]c(CSC2CCOCC2)nc2cc(NC[C@H]3CCOC3)c(F)c(F)c12` [Example 323b, (R)-5,6-Difluoro-2-(((tetrahydro-2H-pyran-4-yl)thio)methyl)-7-(((tetrahydrofuran-3-yl)methyl)amino)quinazolin-4(3H)-one], the 50% inhibitory concentration (IC50) is less than 1 µM.

With `CN1CC[C@@H](COc2cc(F)c3c(=O)[nH]c(CSC4CCOCC4)nc3c2)[C@H](F)C1` [Example 327a, 5-Fluoro-7-(((3S,4S)-3-fluoro-1-methylpiperidin-4-yl)methoxy)-2-(((tetrahydro-2H-pyran-4-yl)thio)methyl)quinazolin-4(3H)-one], the IC50 is less than 1 µM.

The compound `O=c1[nH]c(CSC2CCOCC2)nc2c(Cl)cccc12` [Example 5] yielded an IC50 of 1 to 10 µM.

The compound `CNc1cc2nc(CSC3CCOCC3)[nH]c(=O)c2c(F)c1F` [Example 420] came in with an IC50 of less than 1 µM.

`O=c1[nH]c(CSC2CCOCC2)nc2cc(OCC3CCOCC3)c(F)c(F)c12` [Example 406] had an IC50 of less than 1 µM.

In turn, `Cc1cccc2c(=O)[nH]c(CSC3CCNCC3)nc12` [Example 13, 8-Methyl-2-((piperidin-4-ylthio)methyl)quinazolin-4(3H)-one Trifluoroacetate] gave an IC50 of less than 1 µM.

In the case of `COc1ccccc1Nc1ccc2c(=O)[nH]c(CSC3CCOCC3)nc2c1` [Example 84, 7-((2-Methoxyphenyl)amino)-2-(((tetrahydro-2H-pyran-4-yl)thio)methyl)quinazolin-4(3H)-one], the IC50 was 1 to 10 µM.

`Cc1cccc2c(=O)[nH]c(CS[C@H]3CC[C@@H](N)CC3)nc12` [Example 50, 2-(((cis-4-Aminocyclohexyl)thio)methyl)-8-methylquinazolin-4(3H)-one Trifluoroacetic Acid] gave an IC50 of 1 to 10 µM.

As to `O=c1[nH]c(CS[C@H]2CC[C@H](O)CC2)nc2cc(OCC3CCCOC3)cc(F)c12` (stereo partly drawn) [Example 318, 5-Fluoro-2-(((trans-4-hydroxycyclohexyl)thio)methyl)-7-((tetrahydro-2H-pyran-3-yl)methoxy)quinazolin-4(3H)-one], the 50% inhibitory concentration (IC50) is less than 1 µM.

For `Cc1nccc2c(=O)[nH]c(CSC3CCOCC3)nc12` [Example 42, 8-Methyl-2-(((tetrahydro-2H-pyran-4-yl)thio)methyl)pyrido[3,4-d]pyrimidin-4(3H)-one], the IC50 is more than 10 µM.

`Cc1ccc2nc(CSC3CCOCC3)[nH]c(=O)c2c1` [Example 3] came in with an IC50 of 1 to 10 µM.

Consider `COc1ccc(Nc2ccc3c(=O)[nH]c(CSC4CCOCC4)nc3c2)cc1` [Example 82, 7-((4-Methoxyphenyl)amino)-2-(((tetrahydro-2H-pyran-4-yl)thio)methyl)quinazolin-4(3H)-one], for which the IC50 lay in the range of 1 to 10 µM.

`CNC(=O)c1ccc2c(=O)[nH]c(CSC3CCOCC3)nc2c1` [Example 77, N-Methyl-4-oxo-2-(((tetrahydro-2H-pyran-4-yl)thio)methyl)-3,4-dihydro Quinazoline-7-carboxamide] had a concentration for half-maximal inhibition (IC50) of more than 10 µM.

Compound `O=c1[nH]c(CSC2CCOCC2)nc2cc(NC[C@@H]3CCOC3)c(F)c(F)c12` [Example 323a, (S)-5,6-Difluoro-2-(((tetrahydro-2H-pyran-4-yl)thio)methyl)-7-(((tetrahydrofuran-3-yl)methyl)amino)quinazolin-4(3H)-one] registered a half-maximal inhibitory concentration (IC50) of less than 1 µM.

Consider `O=c1[nH]c(CSC2CCOCC2)nc2cc(NCc3ccncc3)ccc12` [Example 117, 7-((Pyridin-4-ylmethyl)amino)-2-(((tetrahydro-2H-pyran-4-yl)thio)methyl)quinazolin-4(3H)-one], for which the 50% inhibitory concentration (IC50) is 1 to 10 µM.

For `O=c1[nH]c(CSC2CCOCC2)nc2cc(NC3CCCN(Cc4ccccc4)C3)ccc12` (centres unmarked) [Example 126, 7-[(1-Benzyl-3-piperidyl)amino]-2-(tetrahydropyran-4-ylsulfanylmethyl)-3H-quinazolin-4-one], the IC50 lay in the range of 1 to 10 µM.

`CN1CCC(COc2cc(F)c3c(=O)[nH]c(CSC4CCOCC4)nc3c2)CC1` [Example 415] displayed an IC50 of less than 1 µM.

Compound `CC(=O)N[C@H]1CC[C@H](SCc2nc3cc(OCC4CC4)cc(F)c3c(=O)[nH]2)CC1` [Example 330, N-((trans)-4-(((7-(Cyclopropylmethoxy)-5-fluoro-4-oxo-3,4-dihydroquinazolin-2-yl)methyl)thio)cyclohexyl)acetamide] had a 50% inhibitory concentration (IC50) of less than 1 µM.

Consider `O=c1[nH]c(CSC2CCOCC2)nc2cc(SCC3CCOCC3)cc(F)c12` [Example 370], for which the IC50 was less than 1 µM.

Turning to `Cc1cccc2c(=O)[nH]c(CS[C@H]3CCC[C@H](N)CC3)nc12` (relative stereo) [Example 54, 2-(((trans-4-Aminocycloheptyl)thio)methyl)-8-methylquinazolin-4(3H)-one Trifluoroacetate], the 50% inhibitory concentration (IC50) is 1 to 10 µM.

In general, IC50 refers to the point on the concentration scale where inhibition reaches its midpoint.
